One assay has as its system Aβ1-42. Kind of assay: Measurement of Aβ1-42 in culture medium of 7W WT APP751 CHO cells by ELISA. Type of assay: cell-based, Chinese hamster. To be noted: Cricetulus griseus; Table 1; 5 μM test compound; CHO cells stably transfected with human APP751; culture medium, ELISA; control DMSO; 0 = no detectable amount; read-out: Aβ1-42 (% of control). In general terms: In an ELISA, binding on a coated surface is turned into a signal by an enzyme label.

For the next assay, the system named is Aβ1-40. Kind of assay: Measurement of Aβ1-40 in culture medium of 7W WT APP751 CHO cells by ELISA. Type of assay: cell-based, Chinese hamster. To be noted: Cricetulus griseus; Table 1; 5 μM test compound; CHO cells stably transfected with human APP751; culture medium, ELISA; control DMSO; 0 = no detectable amount.

These results are taken from patent publication US20100119599A1 (ARCHER PHARMACEUTICALS, INC., priority 2006, published 2010).
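Note: 5 µM test compound but RI-coded compounds at 10 µM for 24 hours.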

As for `COCCOC(=O)C1=C(C)NC2=C(C(=O)CCC2)C1c1ccc(O)cc1` (stereo not drawn) [ST013254, 2-methoxyethyl 4-(4-hydroxyphenyl)-2-methyl-5-oxo-1,4,6,7,8-pentahydroquinoline-3-carboxylate], the activity at 5 µM in the assay on Aβ1-42 came out at 76.9%; in the assay with Aβ1-40 it was 49.6%.

For `CCN(CC)c1ccc(C2C(C(=O)OCCOC)=C(C)NC3=C2C(=O)CCC3)cc1` (stereo not drawn) [ST013256, 2-methoxyethyl 4-[4-(diethylamino)phenyl]-2-methyl-5-oxo-1,4,6,7,8-pentahydroquinoline-3-carboxylate], the activity at 5 µM in the assay with Aβ1-42 came out at 92.8%; in the assay on Aβ1-40, 60.2%.

In the case of `CC1=C(C(=O)OC2CCCCC2)C(c2cccc3ccccc23)C2=C(CCCC2=O)N1` (stereo not drawn) [ST013258, cyclohexyl 2-methyl-4-naphthyl-5-oxo-1,4,6,7,8-pentahydroquinoline-3-carboxylate], the values for the activity at 5 µM in the assay on Aβ1-42 and in the assay on Aβ1-40 were 47% and 0%, respectively.

With `CC1=C(C(=O)OC2CCCCC2)C(c2ccc(Cl)c(Cl)c2)C2=C(CCCC2=O)N1` (stereo not drawn) [ST013269, cyclohexyl 4-(3,4-dichlorophenyl)-2-methyl-5-oxo-1,4,6,7,8-pentahydroquinoline-3-carboxylate], the activity at 5 µM with Aβ1-42 amounted to 1.35%; in the assay on Aβ1-40 it was 12.3%.

In the case of `COc1ccc(OC)c(C2C(C(=O)OC3CCCCC3)=C(C)NC3=C2C(=O)CCC3)c1` (stereo not drawn) [ST013270, cyclohexyl 4-(2,5-dimethoxyphenyl)-2-methyl-5-oxo-1,4,6,7,8-pentahydroquinoline-3-carboxylate], the activity at 5 µM with Aβ1-42 was found to be 35%; with Aβ1-40, 19.7%.

As to `CC1=C(C(=O)OC2CCCCC2)C(c2ccccc2OCc2ccccc2)C2=C(CCCC2=O)N1` (stereo not drawn) [ST013271, cyclohexyl 2-methyl-5-oxo-4-[2-(phenylmethoxy)phenyl]-1,4,6,7,8-pentahydroquinoline-3-carboxylate], the activity at 5 µM in the assay with Aβ1-42 was 39.9%; in the assay on Aβ1-40, 6.92%.

For `CCc1ccc(C2C(C(=O)OC3CCCCC3)=C(C)NC3=C2C(=O)CCC3)cc1` (stereo not drawn) [ST013320, cyclohexyl 4-(4-ethylphenyl)-2-methyl-5-oxo-1,4,6,7,8-pentahydroquinoline-3-carboxylate], the activity at 5 µM is 71.8% with Aβ1-42 and 60.2% in the assay with Aβ1-40.

`CCCOC(=O)C1=C(C)NC2=C(C(=O)CCC2)C1c1ccccc1OC(C)C` (stereo not drawn) [ST013322, propyl 2-methyl-4-[2-(methylethoxy)phenyl]-5-oxo-1,4,6,7,8-pentahydroquinoline-3-carboxylate]: the activity at 5 µM in the assay with Aβ1-42 was 99.7%; in the assay with Aβ1-40 it was 57.6%.

Regarding `CCOc1ccc(C2C(C(=O)OC(C)C)=C(C)NC3=C2C(=O)CCC3)cc1OC` (stereo not drawn) [ST013323, methylethyl 4-(4-ethoxy-3-methoxyphenyl)-2-methyl-5-oxo-1,4,6,7,8-pentahydroquinoline-3-carboxylate], the activity at 5 µM is 80.1% in the assay on Aβ1-42 and 56.7% in the assay with Aβ1-40.

Consider `CCCCOC(=O)C1=C(C)NC2=C(C(=O)CCC2)C1c1ccccc1OC` (stereo not drawn) [ST013324, butyl 4-(2-methoxyphenyl)-2-methyl-5-oxo-1,4,6,7,8-pentahydroquinoline-3-carboxylate], for which the activity at 5 µM turned out to be 93.7% with Aβ1-42 and 54.3% with Aβ1-40.

As to `CCCCOC(=O)C1=C(C)NC2=C(C(=O)CCC2)C1c1ccccc1OCCC` (stereo not drawn) [ST013325, butyl 2-methyl-5-oxo-4-(2-propoxyphenyl)-1,4,6,7,8-pentahydroquinoline-3-carboxylate], the activity at 5 µM in the assay with Aβ1-42 is 69.4%; with Aβ1-40, 28.5%.

On to `COc1ccc(C2C(C(=O)OC3CCCC3)=C(C)NC3=C2C(=O)CC(C)(C)C3)c(OC)c1OC` (stereo not drawn) [ST013328, cyclopentyl 2,7,7-trimethyl-5-oxo-4-(2,3,4-trimethoxyphenyl)-1,4,6,7,8-pentahydroquinoline-3-carboxylate], for which the activity at 5 µM is 93.4% in the assay on Aβ1-42 and 43.1% in the assay on Aβ1-40.

With `CCCCOC(=O)C1=C(C)NC2=C(C(=O)CCC2)C1c1ccccc1OCCCC` (stereo not drawn) [ST013330, butyl 4-(2-butoxyphenyl)-2-methyl-5-oxo-1,4,6,7,8-pentahydroquinoline-3-carboxylate], the activity at 5 µM amounted to 86.5% in the assay with Aβ1-42 and 38% with Aβ1-40.

On to `COC(=O)C1=C(C)NC2=C(C(=O)CC(c3ccc(OC)cc3)C2)C1c1ccc(C)cc1` (stereo not drawn) [ST013332, methyl 7-(4-methoxyphenyl)-2-methyl-4-(4-methylphenyl)-5-oxo-1,4,6,7,8-pentahydroquinoline-3-carboxylate], for which the results for the activity at 5 µM in the assay with Aβ1-42 and in the assay on Aβ1-40 were 68% and 45.1%, respectively.

Consider `COC(=O)C1=C(C)NC2=C(C(=O)CC(c3ccc(OC)cc3)C2)C1c1cccc([N+](=O)[O-])c1` (stereo not drawn) [ST013333, methyl 7-(4-methoxyphenyl)-2-methyl-4-(3-nitrophenyl)-5-oxo-1,4,6,7,8-pentahydroquinoline-3-carboxylate], for which the activity at 5 µM turned out to be 51.6% in the assay with Aβ1-42 and 48.4% in the assay on Aβ1-40.

As for `COc1ccccc1C1C(C(=O)OC2CCCCC2)=C(C)NC2=C1C(=O)CCC2` (stereo not drawn) [ST013339, cyclohexyl 4-(2-methoxyphenyl)-2-methyl-5-oxo-1,4,6,7,8-pentahydroquinoline-3-carboxylate], the activity at 5 µM with Aβ1-42 turned out to be 6.87%; in the assay with Aβ1-40, 43.6%.

Consider `CCOCCOC(=O)C1=C(C)NC2=C(C(=O)CCC2)C1c1ccc(OC)c(OC)c1` (stereo not drawn) [ST013341, 2-ethoxyethyl 4-(3,4-dimethoxyphenyl)-2-methyl-5-oxo-1,4,6,7,8-pentahydroquinoline-3-carboxylate], for which the activity at 5 µM with Aβ1-42 is 73.9%; in the assay with Aβ1-40, 73%.

Take `CCOCCOC(=O)C1=C(C)NC2=C(C(=O)CCC2)C1c1cccc(O)c1` (stereo not drawn) [ST013342, 2-ethoxyethyl 4-(3-hydroxyphenyl)-2-methyl-5-oxo-1,4,6,7,8-pentahydroquinoline-3-carboxylate]: the activity at 5 µM with Aβ1-42 was found to be 55.5%; in the assay on Aβ1-40 it was 69.7%.

For the compound `CCOCCOC(=O)C1=C(C)NC2=C(C(=O)CC(C)(C)C2)C1c1ccc(O)c(OC)c1` (stereo not drawn) [ST013343, 2-ethoxyethyl 4-(4-hydroxy-3-methoxyphenyl)-2,7,7-trimethyl-5-oxo-1,4,6,7,8-pentahydroquinoline-3-carboxylate], the activity at 5 µM was 83% with Aβ1-42 and 61.1% in the assay on Aβ1-40.

As for `CCOCCOC(=O)C1=C(C)NC2=C(C(=O)CCC2)C1c1ccc(CC)cc1` (stereo not drawn) [ST013344, 2-ethoxyethyl 4-(4-ethylphenyl)-2-methyl-5-oxo-1,4,6,7,8-pentahydroquinoline-3-carboxylate], the activity at 5 µM in the assay on Aβ1-42 was 86.6%; with Aβ1-40 it was 54.4%.

Regarding `CCOCCOC(=O)C1=C(C)NC2=C(C(=O)CCC2)C1c1cc(OC)c(OC)c(OC)c1` (stereo not drawn) [ST013345, 2-ethoxyethyl 2-methyl-5-oxo-4-(3,4,5-trimethoxyphenyl)-1,4,6,7,8-pentahydroquinoline-3-carboxylate], the activity at 5 µM with Aβ1-42 turned out to be 75.4%; with Aβ1-40, 58.4%.

In the case of `CCCCCOC(=O)C1=C(C)NC2=C(C(=O)CCC2)C1c1ccc(OC)c(OC)c1OC` (stereo not drawn) [ST013346, pentyl 2-methyl-5-oxo-4-(2,3,4-trimethoxyphenyl)-1,4,6,7,8-pentahydroquinoline-3-carboxylate], the activity at 5 µM is 77.7% with Aβ1-42 and 16.3% with Aβ1-40.

For `CC1=C(C(=O)OC2CCCCC2)C(c2ccc(Cl)c(Cl)c2)C2=C(CC(c3ccccc3)CC2=O)N1` (stereo not drawn) [ST013350, cyclohexyl 4-(3,4-dichlorophenyl)-2-methyl-5-oxo-7-phenyl-1,4,6,7,8-pentahydroquinoline-3-carboxylate], the activity at 5 µM came out at 95.6% in the assay on Aβ1-42 and 25.1% in the assay with Aβ1-40.

On to `CC1=C(C(=O)OC2CCCCC2)C(c2ccc(Cl)cc2)C2=C(CC(c3ccccc3)CC2=O)N1` (stereo not drawn) [ST013352, cyclohexyl 4-(4-chlorophenyl)-2-methyl-5-oxo-7-phenyl-1,4,6,7,8-pentahydroquinoline-3-carboxylate], for which the activity at 5 µM is 84% with Aβ1-42 and 22.4% in the assay with Aβ1-40.

With `COCCOC(=O)C1=C(C)NC2=C(C(=O)CC(C)(C)C2)C1c1cc(OC)c(OC)c(OC)c1` (stereo not drawn) [ST013356, 2-methoxyethyl 2,7,7-trimethyl-5-oxo-4-(3,4,5-trimethoxyphenyl)-1,4,6,7,8-pentahydroquinoline-3-carboxylate], the activity at 5 µM in the assay with Aβ1-42 is 82.5%; in the assay with Aβ1-40, 62.7%.

Turning to `COCCOC(=O)C1=C(C)NC2=C(C(=O)CCC2)C1c1cc(Br)c(O)c(OC)c1` (stereo not drawn) [ST013357, 2-methoxyethyl 4-(3-bromo-4-hydroxy-5-methoxyphenyl)-2-methyl-5-oxo-1,4,6,7,8-pentahydroquinoline-3-carboxylate], the activity at 5 µM in the assay with Aβ1-42 was determined as 95.2%; in the assay with Aβ1-40, 62.4%.

As for `COCCOC(=O)C1=C(C)NC2=C(C(=O)CCC2)C1c1ccccc1OC` (stereo not drawn) [ST013365, 2-methoxyethyl 4-(2-methoxyphenyl)-2-methyl-5-oxo-1,4,6,7,8-pentahydroquinoline-3-carboxylate], the activity at 5 µM was determined as 56% with Aβ1-42 and 84.5% in the assay with Aβ1-40.

For the compound `COc1cc(C2C(C(=O)OC3CCCCC3)=C(C)NC3=C2C(=O)CC(c2ccccc2)C3)ccc1O` (stereo not drawn) [ST013387, cyclohexyl 4-(4-hydroxy-3-methoxyphenyl)-2-methyl-5-oxo-7-phenyl-1,4,6,7,8-pentahydroquinoline-3-carboxylate], the figures for the activity at 5 µM with Aβ1-42 and in the assay on Aβ1-40 were 26.4% and 40%, respectively.

For `CCc1ccc(C2C(C(=O)OC3CCCCC3)=C(C)NC3=C2C(=O)CC(c2ccccc2)C3)cc1` (stereo not drawn) [ST013389, cyclohexyl 4-(4-ethylphenyl)-2-methyl-5-oxo-7-phenyl-1,4,6,7,8-pentahydroquinoline-3-carboxylate], the activity at 5 µM came out at 94.4% with Aβ1-42 and 37.4% with Aβ1-40.

Take `CCc1ccc(C2C(C(=O)OCc3ccccc3)=C(C)NC3=C2C(=O)CC(c2ccccc2)C3)cc1` (stereo not drawn) [ST013390, phenylmethyl 4-(4-ethylphenyl)-2-methyl-5-oxo-7-phenyl-1,4,6,7,8-pentahydroquinoline-3-carboxylate]: the activity at 5 µM turned out to be 98.3% with Aβ1-42 and 23.4% in the assay on Aβ1-40.
